Molecular target: T1, Recombinant human TLR7 (Homo sapiens, UniProt Q9NYK1)
T1 construct: expressed in transfected cells; host or cells: HEK293 cell line stably expressing the pNiFty2-SEAP reporter plasmid; TLR7 in pUNO vector
T1 sequence (Q9NYK1 27-1049): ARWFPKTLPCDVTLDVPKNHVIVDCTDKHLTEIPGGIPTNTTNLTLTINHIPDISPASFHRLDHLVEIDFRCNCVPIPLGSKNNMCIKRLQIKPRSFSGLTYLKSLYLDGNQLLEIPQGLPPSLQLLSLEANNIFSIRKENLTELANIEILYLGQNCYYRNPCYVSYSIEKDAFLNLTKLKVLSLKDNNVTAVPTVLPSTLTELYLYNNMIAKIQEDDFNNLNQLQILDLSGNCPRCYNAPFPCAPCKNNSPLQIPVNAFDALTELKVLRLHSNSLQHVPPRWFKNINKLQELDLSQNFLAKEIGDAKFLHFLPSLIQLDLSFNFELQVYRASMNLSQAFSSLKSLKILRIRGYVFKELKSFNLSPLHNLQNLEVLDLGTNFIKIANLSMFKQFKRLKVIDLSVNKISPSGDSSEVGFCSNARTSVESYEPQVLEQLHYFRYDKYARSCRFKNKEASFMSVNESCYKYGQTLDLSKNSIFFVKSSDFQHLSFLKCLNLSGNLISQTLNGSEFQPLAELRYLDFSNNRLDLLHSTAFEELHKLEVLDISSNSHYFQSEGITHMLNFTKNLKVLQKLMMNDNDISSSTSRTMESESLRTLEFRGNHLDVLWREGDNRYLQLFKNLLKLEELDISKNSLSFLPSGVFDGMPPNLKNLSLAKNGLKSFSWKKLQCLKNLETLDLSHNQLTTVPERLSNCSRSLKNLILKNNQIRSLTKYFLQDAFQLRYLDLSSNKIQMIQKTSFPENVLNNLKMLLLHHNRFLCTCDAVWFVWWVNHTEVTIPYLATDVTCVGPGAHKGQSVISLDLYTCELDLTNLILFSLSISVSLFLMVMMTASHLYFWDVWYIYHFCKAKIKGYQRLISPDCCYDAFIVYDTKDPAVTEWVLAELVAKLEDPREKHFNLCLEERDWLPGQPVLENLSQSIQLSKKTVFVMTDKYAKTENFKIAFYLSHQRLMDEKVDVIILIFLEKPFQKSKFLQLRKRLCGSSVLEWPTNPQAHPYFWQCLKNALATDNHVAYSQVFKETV
Test: Human TLR7 Assay (SEAP reporter in HEK293 cells)
Format: cell-based
Conditions: HEK293 cell line stably expressing human TLR7 and pNiFty2-SEAP reporter; SEAP induction after overnight incubation at 37° C., 0.1% (v/v) DMSO
Source text: Recombinant human TLR7 was stably expressed in a HEK293 cell line already stably expressing the pNiFty2-SEAP reporter plasmid; integration of the reporter gene was maintained by selection with the antibiotic zeocin. The most common variant sequence of human TLR7 (represented by the EMBL sequence AF240467) was cloned into the mammalian cell expression vector pUNO and transfected into this reporter cell-line. Transfectants with stable expression were selected using the antibiotic blasticidin. In this reporter cell-line, expression of secreted alkaline phosphatase (SEAP) is controlled by an NFkB/ELAM-1 composite promoter comprising five NFkB sites combined with the proximal ELAM-1 promoter. TLR signaling leads to the translocation of NFkB and to activation of the promoter results in expression of the SEAP gene. TLR7-specific activation was assessed by determining the level of SEAP produced following overnight incubation of the cells at 37° C. with the standard compound in the presence of 0.1% (v/v) dimethylsulfoxide (DMSO). Concentration dependent induction of SEAP production by compounds was expressed as the concentration of compound which produced half of the maximal level of SEAP induction for that compound (pEC50)

Question: CCCCOc1nc(N)c2[nH]c(=O)n(CCCN3CCCC3)c2n1 [Example 1, 6-Amino-2-butoxy-9-(3-pyrrolidin-1-ylpropyl)-7,9-dihydro-8H-purin-8-one] was tested. Which EC50 did it give?
Answer: 398 nM

Question: For CCCCOc1nc(N)c2[nH]c(=O)n(CCCN3CCC[C@H]3C(=O)N(C)C)c2n1 [Example 2, 1-[3-(6-Amino-2-butoxy-8-oxo-7,8-dihydro-9H-purin-9-yl)propyl]-N,N-dimethyl-L-prolinamide], which EC50 is on record?
Answer: 3160 nM

Question: How did the EC50 turn out when CCCCOc1nc(N)c2[nH]c(=O)n(CCCN(C)CC(=O)N(C)C)c2n1 [Example 4, N^2-[3-(6-Amino-2-butoxy-8-oxo-7,8-dihydro-9H-purin-9-yl)propyl]-N^1,N^1,N^2-trimethylglycinamide] was run?
Answer: 251 nM

Question: Which EC50 does the source give for CCCCOc1nc(N)c2[nH]c(=O)n(CCCN3CCC[C@H]3COC)c2n1 [Example 3, 6-Amino-2-butoxy-9-{3-[(25)-2-(methoxymethyl)pyrrolidin-1-yl]propyl}-7,9-dihydro-8H-purin-8-one] here?
Answer: 2510 nM
